The record followed here is US20220242870A1, “HETEROCYCLE-FUSED PYRIMIDINE DERIVATIVE AND USE THEREOF” (VORONOI Inc., priority 2019, published 2022).

The target of test [1] is T1, CDK4-cyclinD1 (Homo sapiens, UniProt P11802). Kind of test: scanMAX kinase assay panel. In kind it is binding. Further details: purchased DiscoverX (scanMAX panel, contract assay). The following applies: read-out: control percentage (% control). As to the method: The activities of the compounds according to the present invention to more diverse enzymes were evaluated. Specifically, it was decided that the enzyme selectivity of Example 74 selected from the compounds of Examples 1 to 129 was measured at the request of DiscoverX, and the experiment was conducted using a scanMAX™ kinase assay panel. At this time, as a drug to treat the enzyme, a solution prepared by dissolving in DMSO at a concentration of 1 μM was used, and the control percentage (% control) was determined by the method of Equation 1 below, and the results were shown in Table 2 below.
In Equation above, the positive control and negative control mean compounds showing control percentages of 0% and 100% as DMSO, respectively.

For test [2], the system named is MV4-11 cells. Kind of test: AML cell proliferation inhibitory activity (CellTiter-Glo). In kind it is cell-based. As to conditions: Homo sapiens, 72 hours. The method, boiled down: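 RS4;11 and MV4-11 cells in RPMI-1640 with 10% FBS, seeded 24 h before treatment, then exposed 72 h to 12 three-fold dilutions (0.3 nM–50 μM final). Viability by CellTiter-Glo luminescence relative to solvent control; GI50 from triplicate experiments.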
Background: Cellular ATP, detected with luciferase, serves as a proxy for viable cell number.

Test [3] concerns the target T1, CDK4-cyclinD1. Kind of test: CDK4 enzyme inhibitory ability (Reaction Biology). In kind it is biochemical. On the set-up: purchased Reaction Biology (USA), contract assay. The following applies: measured in Reaction Biology (USA). The protocol:
In order to evaluate the CDK4 and CDK6 enzyme inhibitory activities of the example compounds according to the present invention, IC5O (nM) was measured for the CDK4 cyclin D1 and CDK6 cyclin D1 enzymes in Reaction Biology (USA), and the results were shown in Table 3 below.

The target of test [4] is T2, human FLT3-ITD enzyme (Homo sapiens, UniProt P36888).
T2 sequence (P36888 1-993): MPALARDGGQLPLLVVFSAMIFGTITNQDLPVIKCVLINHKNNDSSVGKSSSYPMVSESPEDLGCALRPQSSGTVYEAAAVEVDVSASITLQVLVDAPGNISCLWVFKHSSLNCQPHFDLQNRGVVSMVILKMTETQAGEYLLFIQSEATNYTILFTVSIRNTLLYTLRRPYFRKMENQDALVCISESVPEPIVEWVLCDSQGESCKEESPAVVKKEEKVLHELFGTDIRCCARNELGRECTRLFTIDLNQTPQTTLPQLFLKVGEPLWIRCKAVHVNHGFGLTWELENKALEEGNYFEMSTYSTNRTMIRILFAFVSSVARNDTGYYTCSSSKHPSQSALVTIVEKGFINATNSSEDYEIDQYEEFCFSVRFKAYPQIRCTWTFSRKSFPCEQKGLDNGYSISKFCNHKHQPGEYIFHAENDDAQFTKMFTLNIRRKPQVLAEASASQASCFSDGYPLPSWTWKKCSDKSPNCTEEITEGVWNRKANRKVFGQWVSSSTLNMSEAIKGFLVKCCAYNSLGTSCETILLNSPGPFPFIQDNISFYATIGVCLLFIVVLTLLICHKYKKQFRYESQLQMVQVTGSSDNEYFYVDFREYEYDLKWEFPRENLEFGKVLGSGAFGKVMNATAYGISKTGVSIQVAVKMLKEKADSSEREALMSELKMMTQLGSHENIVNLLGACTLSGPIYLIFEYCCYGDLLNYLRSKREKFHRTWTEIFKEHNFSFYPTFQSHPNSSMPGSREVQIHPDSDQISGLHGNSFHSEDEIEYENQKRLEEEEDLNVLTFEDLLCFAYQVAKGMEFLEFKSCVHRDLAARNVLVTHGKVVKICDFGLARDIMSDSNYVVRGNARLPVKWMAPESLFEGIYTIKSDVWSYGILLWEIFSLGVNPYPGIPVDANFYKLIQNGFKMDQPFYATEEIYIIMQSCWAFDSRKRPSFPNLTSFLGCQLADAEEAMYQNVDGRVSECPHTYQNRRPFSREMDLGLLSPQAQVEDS
As to the kind of experiment: FLT3 enzyme inhibitory ability (ADP-Glo kinase assay). The following applies: human FLT3-ITD enzyme 10 ng, ATP 10 μM, 25° C. 1 hour. In kind it is biochemical. The method, boiled down: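 Purified human FLT3-ITD (10 ng) with 10 μM ATP and specific substrate in 40 mM Tris-HCl pH 7.4, 20 mM MgCl2, 0.5 mg/mL BSA, 50 μM DTT, 1 h at 25 °C. ADP formation read by ADP-Glo luminescence; IC50 (nM) versus solvent-treated control.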
Background: ADP-Glo turns the ADP formed in a reaction into a luminescent signal.

T1 sequence (P11802 whole entry): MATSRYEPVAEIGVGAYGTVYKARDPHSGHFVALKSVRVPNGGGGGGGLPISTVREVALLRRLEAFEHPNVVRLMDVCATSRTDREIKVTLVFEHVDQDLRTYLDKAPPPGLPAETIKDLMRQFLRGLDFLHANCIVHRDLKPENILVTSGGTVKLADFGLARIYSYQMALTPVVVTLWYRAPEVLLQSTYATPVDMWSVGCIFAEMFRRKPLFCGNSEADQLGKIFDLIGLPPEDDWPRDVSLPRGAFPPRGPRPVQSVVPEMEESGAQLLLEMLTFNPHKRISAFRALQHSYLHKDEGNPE
T1 sequence (P24385 whole entry partner): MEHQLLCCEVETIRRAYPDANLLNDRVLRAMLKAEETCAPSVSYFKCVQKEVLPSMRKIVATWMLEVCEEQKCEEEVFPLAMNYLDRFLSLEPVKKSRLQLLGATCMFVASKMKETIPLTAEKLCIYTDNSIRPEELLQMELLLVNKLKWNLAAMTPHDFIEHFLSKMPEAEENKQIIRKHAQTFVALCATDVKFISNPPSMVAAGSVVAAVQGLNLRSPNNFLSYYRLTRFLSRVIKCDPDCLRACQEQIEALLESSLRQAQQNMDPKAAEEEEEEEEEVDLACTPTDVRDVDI

As to `CN1CCN(c2ccc(Nc3nc(N4OCC[C@H]4c4ccccc4)c4cc[nH]c4n3)cc2)CC1` [Example 74, (S)-N-(4-(4-methylpiperazin-1-yl)phenyl)-4-(3-phenylisoxazolidin-2-yl)-7H-pyrrolo[2,3-d]pyrimidin-2-amine], the remaining binding at 1 µM in test [1] is 0.55%. The 50% growth inhibitory concentration (GI50) (commonly the concentration that inhibits growth by half) in test [2] was not below 0.25 µM. Further, the IC50 (in general, the concentration needed to halve the response being measured) is not below 0.25 µM in test [3] and more than 0.5 µM in test [4].
